These results are taken from patent US20250100977A1, “MERCAPTOPYRIMIDINE COMPOUNDS THAT INHIBIT NONHOMOLOGOUS END JOINING AND METHODS THEREOF” (INDIAN INSTITUTE OF SCIENCE, priority 2021, published 2025).

In experiment [1] the test system is rat testicular extracts. Briefly: Inhibition of end joining of rat testicular extracts (NHEJ). Type of experiment: biochemical. The settings on record: 500 μM; rat testicular extract. On the procedure:
The compounds of the present invention were tested for their effects on inhibition of DNA end joining reactions using rat tissue extracts and purified DNA Ligase IV/XRCC4. Rat testicular extracts were prepared from testes of 4-6 week old male Wistar rats, Rattus norvegicus using ammonium sulphate precipitation method. To determine end joining of cell-free extracts, radiolabeled double-stranded (ds) oligomeric DNA substrate was incubated with rat testicular extract at 25° C. in suitable NHEJ buffer. Extracts were incubated for 30 min with the compounds of Formula I (01-41, 500 μM) as prepared in Example 1, and then radioactive DNA substrate was added to the reaction mixture and incubated for 1 h at 25° C. Reactions were stopped using EDTA, and products were purified using phenol: chloroform extraction and loaded on denaturing polyacrylamide gel. […] Joining efficiency was calculated using the intensity of product bands (150 bp or higher) in individual lanes in Multi Gauge software as compared to control (lanes 2,3). Lane 1 denotes radioactive substrate in absence of protein or inhibitor, while M denotes radiolabeled 50 bp DNA ladder.
(§1) Effects of these compounds on NHEJ and Ligase IV mediated joining were evaluated (FIG. 4A-K). The reactions were terminated by EDTA (10 mM), products were purified using phenol/chloroform, precipitated with chilled ethanol and glycogen, and resolved on 8% denaturing PAGE. The gel was dried, exposed, and signal was detected using phosphor Imager FLA9000 (Fuji, Japan), and quantified in MultiGauge software expressed as Photo Stimulated Luminescence Units (PSLU). Inhibition of end joining was reported at 200 μM and 100 μM, respectively for SCR116 and SCR132 (FIGS. 4A, B, C and D), with >50% inhibition at 200 and 100 μM concentrations, respectively. […] FIG. 4K depict the purification profile of Ligase IV and XRCC4. Further FIGS. 4L-M represent inhibition of end joining catalysed by (FIG. 4L) purified Ligase III/XRCCI in presence of SCR116 and SCR132 (50, 100, 200, 500, 1000 μM) and (FIG. 4M) by purified Ligase I in presence of increasing concentrations of SCR116 and SCR132 (10, 50, 100, 200, 500, 1000 μM).

Experiment [2] deals with T1, DNA Ligase IV/XRCC4 (Homo sapiens, UniProt P49917).
T1 construct: made in house; host or cells: bacteria
In words: Inhibition of end joining by purified DNA Ligase IV/XRCC4. Type of experiment: biochemical. To be noted: 200 μM; purified Ligase IV/XRCC4. On the procedure: The compounds of Formula I were evaluated for their specific inhibition activity towards enzyme DNA Ligase IV. DNA Ligase IV/XRCC4 was purified from bacteria using Ni-NTA column (FIG. 2A), and used for evaluation of inhibition of end joining of the compounds (01-41) at 200 μM (FIGS. 2B, C and D). The compounds were incubated with purified Ligase IV/XRCC4 in suitable NHEJ buffer at 25° C. for 30 min, followed by addition of radiolabeled DNA, and further incubation for 1 h at 25° C. Products were purified using phenol: chloroform and run on denaturing PAGE.
as §1

Experiment [3] concerns Nalm6. In words: Cytotoxicity (viable cells) in Nalm6. Type of experiment: cell-based. To be noted: Homo sapiens, NALM-6; Table 1; 48 h; read-out: IC50 in cancer cell lines, Nalm6. On the procedure: (§2) The compounds of the present invention were screened initially in leukemic and cervical cancer cell lines (Table 1). […] In cervical cancer cell line HeLa, IC50 was 5 and 2 μM, respectively for SCR116 and SCR132 (FIG. 5A-B).
(§3) Ligase IV specificity of the compounds of the present invention inside the cells were also determined using Ligase IV knock out (KO) cell line N114 compared to the wild type Nalm6 (Table 2, FIGS. 5C, D, E and F). […] Table 1 showing IC50 of SCR7 derivatives in cancer cell lines Nalm6 and HeLa. IC50 was calculated using GraphPad Prism software from the percentage of viable cells following treatment with the compounds at 48 h. Table 2 showing IC50 of SCR116 and SCR132 in a panel of 16 cancer cell lines.

The subject of experiment [4] is HeLa. Briefly: Cytotoxicity (viable cells) in HeLa. To be noted: Homo sapiens, HeLa, 48 h, Table 1; 48 h; read-out: IC50 in cancer cell lines, HeLa. Type of experiment: cell-based. On the procedure:
as §2, §3

The test system of experiment [5] is Ligase IV knock out (KO) cell line N114. To be noted: Vartak et al. 2018; cited from earlier work.

T1 sequence (P49917 whole entry): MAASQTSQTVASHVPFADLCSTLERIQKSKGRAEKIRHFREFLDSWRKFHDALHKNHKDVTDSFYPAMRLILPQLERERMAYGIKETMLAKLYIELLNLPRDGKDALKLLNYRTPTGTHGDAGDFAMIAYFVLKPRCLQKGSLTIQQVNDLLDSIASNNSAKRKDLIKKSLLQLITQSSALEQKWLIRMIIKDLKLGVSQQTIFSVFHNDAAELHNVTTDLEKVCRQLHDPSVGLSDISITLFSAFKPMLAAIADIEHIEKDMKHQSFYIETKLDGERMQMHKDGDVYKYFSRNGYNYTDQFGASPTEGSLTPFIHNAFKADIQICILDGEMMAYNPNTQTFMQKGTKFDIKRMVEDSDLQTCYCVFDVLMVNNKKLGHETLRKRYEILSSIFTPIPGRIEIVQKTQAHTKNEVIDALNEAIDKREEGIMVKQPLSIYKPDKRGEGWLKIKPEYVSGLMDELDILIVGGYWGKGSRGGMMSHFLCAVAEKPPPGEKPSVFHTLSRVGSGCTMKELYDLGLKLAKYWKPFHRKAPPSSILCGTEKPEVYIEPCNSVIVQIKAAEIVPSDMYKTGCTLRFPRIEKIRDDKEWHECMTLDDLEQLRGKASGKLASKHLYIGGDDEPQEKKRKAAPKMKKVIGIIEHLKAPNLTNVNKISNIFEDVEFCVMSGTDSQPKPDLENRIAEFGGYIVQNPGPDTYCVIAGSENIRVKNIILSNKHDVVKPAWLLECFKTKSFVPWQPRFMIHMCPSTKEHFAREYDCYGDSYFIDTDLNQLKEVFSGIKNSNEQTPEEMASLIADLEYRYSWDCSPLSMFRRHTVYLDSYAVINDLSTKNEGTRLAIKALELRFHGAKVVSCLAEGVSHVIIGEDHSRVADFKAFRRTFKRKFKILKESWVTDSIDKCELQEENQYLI
T1 sequence (Q13426 whole entry partner): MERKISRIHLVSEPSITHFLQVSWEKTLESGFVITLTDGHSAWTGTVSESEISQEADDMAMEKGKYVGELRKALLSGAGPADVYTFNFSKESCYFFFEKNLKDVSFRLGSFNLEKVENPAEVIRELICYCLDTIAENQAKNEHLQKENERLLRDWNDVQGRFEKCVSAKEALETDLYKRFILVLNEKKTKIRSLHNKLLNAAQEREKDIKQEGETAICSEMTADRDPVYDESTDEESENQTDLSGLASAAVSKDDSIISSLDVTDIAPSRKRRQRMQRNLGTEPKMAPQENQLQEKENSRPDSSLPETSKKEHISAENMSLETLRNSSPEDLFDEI

By IC50 is commonly meant the midpoint of a concentration-inhibition curve. `CC(=O)OCc1ccc(/C=N/c2c(N)nc(S)nc2O)o1` [Compound 15, (E)-(5-(((4-amino-6-hydroxy-2-mercaptopyrimidin-5-yl)imino)methyl)furan-2-yl)methylacetate]: in experiment [1], the “Inhibition of end joining (no joined product observed)” value is reported as “showed inhibition of end joining”. For the same compound, the “Inhibition of end joining compared with control” value in experiment [2] is listed as “significant inhibition of end joining”. For the same compound, the IC50 in experiment [3] is 29.8 µM; in experiment [4], 79.8 µM.

For `Nc1nc(S)nc(O)c1/N=C/c1cccc2ccccc12` [Compound 17, (E)-6-amino-2-mercapto-5-((naphthalen-1-ylmethylene)amino)pyrimidin-4-ol], the IC50 in experiment [3] came to 29.7 µM; in experiment [4], 29.5 µM.

As for `CN(C)c1ccc(/C=N/c2c(N)nc(S)nc2O)cc1` [Compound 37, (E)-6-amino-5-((4-(dimethylamino)benzylidene)amino)-2-mercaptopyrimidin-4-ol], the concentration for half-maximal inhibition (IC50) in experiment [3] turned out to be 15.2 µM; in experiment [4], 47.8 µM.

`O=c1[nH]c(=S)[nH]c2nc(-c3ccccc3)c(-c3ccccc3)nc12` [SCR7-pyrazine]: the “Effect in KO in absence of Ligase IV” value in experiment [5] was “nonspecific effects”.

`Nc1nc(S)nc(O)c1/N=C/c1cncc2ccccc12` [Compound 05, 6-amino-5-{[(E)-isoquinolin-4-ylmethylidene]amino}-2-mercaptopyrimidin-4-ol]: the IC50 in experiment [3] came out at 18.2 µM; in experiment [4] it was 11.9 µM.

`Nc1nc(S)nc(O)c1/N=C/c1ccc[nH]1` [Compound 12, (E)-5-(((1H-pyrrol-2-yl)methylene)amino)-6-amino-2-mercaptopyrimidin-4-ol]: in experiment [1], the “Inhibition of end joining (no joined product observed)” value is “showed inhibition of end joining”. Also, the “Inhibition of end joining compared with control” value in experiment [2] is “significant inhibition of end joining”. In addition, the values for the IC50 in experiment [3] and in experiment [4] were 29.5 µM and 48.5 µM, respectively.

On to `Nc1nc(S)nc(O)c1/N=C/c1ccc2ccccc2n1` [Compound 38, (E)-6-amino-2-mercapto-5-((quinolin-2-ylmethylene)amino)pyrimidin-4-ol], for which the IC50 in experiment [3] was determined as 25.5 µM; in experiment [4] it was 45.8 µM.

For the compound `Nc1nc(S)nc(O)c1/N=C/c1cc(Br)ccc1O` [Compound 40, (E)-6-amino-5-((5-bromo-2-hydroxybenzylidene)amino)-2-mercaptopyrimidin-4-ol], the “Inhibition of end joining (no joined product observed)” value in experiment [1] is listed as “showed inhibition of end joining”. Also, the IC50 was found to be 12.6 µM in experiment [3] and 18.3 µM in experiment [4].

For the compound `N#Cc1ccc(/C=N/c2c(N)nc(S)nc2O)cc1` [Compound 36, (E)-4-(((4-amino-6-hydroxy-2-mercaptopyrimidin-5yl)imino)methyl)benzonitrile], the half-maximal inhibitory concentration (IC50) came to 2.88 µM in experiment [3] and 27.2 µM in experiment [4].

On to `Nc1nc(S)nc(O)c1/N=C/c1nccs1` [Compound 13, (E)-6-amino-2-mercapto-5-((thiazol-2-ylmethylene)amino)pyrimidin-4-ol], for which the IC50 was 25.6 µM in experiment [3] and 133 µM in experiment [4].

For `Nc1nc(S)nc(O)c1/N=C/c1cccs1` [Compound 01, (E)-6-amino-2-mercapto-5-((thiophen-2-ylmethylene)amino)pyrimidin-4-ol], the IC50 in experiment [3] was 23.3 µM; in experiment [4], 17.7 µM.

Regarding `Nc1nc(S)nc(O)c1/N=C/c1ccc(Br)s1` [Compound 35, (E)-6-amino-5-(((5-bromothiophen-2-yl)methylene)amino)-2-mercaptopyrimidin-4-ol], the IC50 in experiment [3] came out at 6.87 µM; in experiment [4], 18.4 µM.

Regarding `Nc1nc(S)nc(O)c1/N=C/c1cc(F)c(O)c(F)c1` [Compound 41, (E)-6-amino-5-((3,5-difluoro-4-hydroxybenzylidene)amino)-2-mercaptopyrimidin-4-ol], the IC50 in experiment [3] stood at 28.8 µM; in experiment [4] it was 29.2 µM.

For `Nc1nc(S)nc(O)c1/N=C/c1cccnc1` [Compound 07, (E)-6-amino-2-mercapto-5-((pyridin-3-ylmethylene)amino)pyrimidin-4-ol], the IC50 in experiment [3] worked out at 26.6 µM; in experiment [4], 28.2 µM.

For the compound `Nc1nc(S)nc(O)c1/N=C/c1ccccc1O` [Compound 06, (E)-6-amino-5-((2-hydroxybenzylidene)amino)-2-mercaptopyrimidin-4-ol], the “Inhibition of end joining (no joined product observed)” value in experiment [1] is “showed inhibition of end joining”. For the same compound, the IC50 stood at 19.4 µM in experiment [3] and 17.5 µM in experiment [4].

With `Nc1nc(S)nc(O)c1/N=C/c1ccnc(Cl)c1` [Compound 31, (E)-6-amino-5-(((2-chloropyridin-4-yl)methylene)amino)-2-mercaptopyrimidin-4-ol], the “Inhibition of end joining (no joined product observed)” value in experiment [1] was “showed inhibition of end joining”. In addition, the IC50 in experiment [3] is 4.04 µM; in experiment [4] it was 6.95 µM.

Regarding `COc1cc(/C=N/c2c(N)nc(S)nc2O)ccc1O` [Compound 39, (E)-6-amino-5-((4-hydroxy-3-methoxybenzylidene)amino)-2-mercaptopyrimidin-4-ol], the IC50 in experiment [3] worked out at 33.6 µM; in experiment [4], 43.2 µM.

Regarding `N#Cc1ccc(/C=N/c2c(N)nc(S)nc2O)s1` [Compound 34, (E)-5-(((4-amino-6-hydroxy-2-mercaptopyrimidin-5-yl)imino)methyl)thiophene-2-carbonitrile], the IC50 in experiment [3] stood at 0.95 µM; in experiment [4], 41.4 µM.

As for `Nc1nc(S)nc(O)c1/N=C/c1ncc[nH]1` [Compound 04, (E)-5-(((1H-imidazol-2-yl)methylene)amino)-6-amino-2-mercaptopyrimidin-4-ol], the IC50 in experiment [3] was 29.7 µM; in experiment [4], 95 µM.

Regarding `Nc1nc(S)nc(O)c1/N=C/c1ccncc1F` [Compound 33, (E)-6-amino-5-(((3-fluoropyridin-4-yl)methylene)amino)-2-mercaptopyrimidin-4-ol], the IC50 in experiment [3] was determined as 2.24 µM; in experiment [4], 20.8 µM.
